Results taken from US10428024B2, “Piperidinyl derivatives” (MERCK PATENT GMBH, priority 2016, dated 2019).

Columns and labels:
PDHK2 = PDHK2 (Homo sapiens (Human), UniProt Q15119); experiment: Biochemical activity testing of PDHK2: PDC inactivation assay; conditions: human rec PDHK2, 5 μM ATP, read-out: IC50 PDHK2 (enzyme assay)
Excerpt: Biochemical Activity Testing of PDHK2: PDC Inactivation Assay
The biochemical activity assay for PDHK2 is based on the inactivation of PDC through phosphorylation by PDHK2. The assay is run in two steps: the enzymatic PDHK2 reaction in which isolated PDC is phosphorylated by PDHK2 with ATP as co-substrate and the PDC activity assay in which pyruvate and NAD are converted to acetyl-CoA and NADH. The PDC activity correlates to the increase in NADH and thereby is detectable directly via the increasing fluorescence signal (Exc 340 nm, Em 450 nm). Inhibition of PDHK2 results in a lower phosphorylation status and thereby a less decrease in activity of PDC and a stronger increase in NADH fluorescence signal.
The PDC inactivation assay is performed in Greiner 384-well microtiter plates and is used for high throughput screen. 4 μl of PDHK2 (human, rec, Carna Bioscience, 10 ng/μl-137 nM final concentration) and PDC (isolated from porcine heart, Sigma-Aldrich, 20 mU/ml final concentration) are incubated in the absence or presence of the test compound (10 dilution concentrations) for 30 min at room temperature in kinase buffer (15 mM potassium phosphate buffer, pH 7.0, 60 mM KCl, 1.5 mM DTT, 2.5 mM MgCl2, 0.0125% (w/v) BSA, 0.125% Pluronic F-68). The kinase reaction is started by the addition of 4 μl ATP substrate solution (fc 5 μM in kinase buffer). After 30 min incubation at 37° C. 40 μl of PDC reaction solution (100 mM Tris/HCl, pH 7.8, 0.5 mM EDTA, 1 mM MgCl2, 50 mM NaF, 0.25 mM Coenzyme A, 5 mM pyruvate, 1 mM NAD, 5 mM DTT, 1 mM thiamine pyrophosphate) is added. The first fluorescence measurement is performed on a Perkin Elmer Envision (Exc 340 nm, Em 450 nm). The reaction is incubated for 45 min at room temperature. Afterwards a second fluorescence measurement is performed and the PDC activity is calculated by the difference between both measurements. As full value for the PDHK2 assay the inhibitor-free PDHK2 reaction is used. The pharmacological zero value used is DCA (Sigma-Aldrich) in a final concentration of 3 mM. The inhibitory values (IC50) were determined using either the program Symyx Assay Explorer® or Condosseo® from GeneData.

human PDHK2 (12-407) = human PDHK2 (12-407) (Homo sapiens (Human), UniProt Q15119); experiment: Isothermal titration calorimetry (ITC); conditions: 30° C., pH 7.5; read-out: Binding (ITC) KD
Procedure: Isothermal Titration Calorimetry
ITC measurements were performed with a VP-ITC micro calorimeter (Microcal, LLC/GE Healthcare Bio-Sciences AB, Uppsala, Sweden). In general titrations were performed by titrating the protein (50 μM) to the test compound (5 μM) in 12 μl injections. All binding experiments were carried out at 30° C. In general the test compounds were diluted form DMSO stock solutions into the measurement buffer with a maximum final concentration of 1% DMSO. The measurement buffer was 20 mM HEPES, 135 mM KCl, 1 mM TCEP, 2 mM MgCl2, 15 mM NaH2PO4, pH 7.5. The human PDHK2 (12-407) was produced in E. coli as his-tagged protein and purified by affinity chromatography. The tag was removed by side specific proteolysis. Before titration the protein buffer was changed to the measurement buffer containing the same DMSO concentration as the test compound dilution. ITC data analysis was performed using Origin 7 calorimetry software from the same supplier. For most measurements a binding model of one binding site was assumed. According to the applied mathematical model it is possible to calculate the binding constant (KA), the observed binding enthalpy (ΔH^obs) as well as the stoichiometry (N) of the formed complex. Preceding analysis the raw data was corrected for the heats of dilution by extrapolating from the saturation value from the end of titration. In order to allow for direct comparison between the respective experimental series and protein preparations the protein concentration was corrected by referencing titrations to a well behaved standard inhibitor. The apparent stoichiometry values defined the fraction of binding competent protein and compensated for relative errors in protein concentration measurements. This corrected protein concentration was used to set up ITC experiment series with test compounds. Any deviations from ideal 1:1 stoichiometry observed here were attributed to errors in compound concentration. This nominal compound concentration was corrected as well to achieve 1:1 stoichiometry in the fit.

[1] = test system: PDH-E1alpha (pSer300) in HEK293T cells; experiment: Cellular immunofluorescence assay (Anti-PDH-E1alpha (pSer300)) in HEK293T cells; format: cell-based; conditions: Homo sapiens, HEK-293T, 5 hours incubation, read-out: IC50 (cell data)
Procedure: Cellular Assay for Determination of Compound Activities
Compound activities were determined in a cellular immunofluorescence assay.
Human HEK293T cells were seeded into black 384-well plates with clear bottom and grown overnight.
Next day, test compounds were added to the wells and the plates incubated for 5 hours. Following this, cells were fixed with formaldehyde, permeabilised and blocked. The primary antibody, Anti-PDH-E1alpha (pSer300), AP1064 (Merck Millipore) was added and incubated overnight in the plate wells. Next, cells were washed and the secondary antibody, Alexa Fluor 488, goat anti-rabbit ab (A-11008, Invitrogen) was added together with Hoechst 33258 (H3569, Invitrogen) and incubated for 1 hour in the plate wells. Finally, cells were washed and the plates were measured on the laser scanning cytometer acumen hci (TTpLabtech).
The raw data were normalized against a pharmacological inhibitor control and dose response curves were generated by plotting the percent effect values using the software package Genedata screener (Genedata).

Row | Compound | IC50 (PDHK2) [nM] | Kd (human PDHK2 (12-407)) [nM] | IC50 [1] [nM]
1 | COc1ccc(C(=O)N(C)[C@H]2CCN(C(=O)[C@@](C)(O)C(F)(F)F)C[C@H]2C)cc1 [Compound A35, 4-Methoxy-N-methyl-N-[(3R,4S)-3-methyl-1-[(2R)-3,3,3-trifluoro-2-hydroxy-2-methylpropanoyl]piperidin-4-yl]benzamide] | 310 | 37 | 33
2 | C[C@@H]1CN(C(=O)[C@@](C)(O)C(F)(F)F)CC[C@@H]1N(C)C(=O)c1ccc(F)cc1F [Compound A38, 2,4-Difluoro-N-methyl-N-[(3R,4S)-3-methyl-1-[(2R)-3,3,3-trifluoro-2-hydroxy-2-methylpropanoyl]piperidin-4-yl]benzamide] | 180 | 19 | 110
3 | C[C@@H]1CN(C(=O)[C@@](C)(O)C(F)(F)F)CC[C@@H]1N(C)C(=O)c1ncc(F)cc1F [Compound A41, 3,5-Difluoro-N-methyl-N-[(3R,4S)-3-methyl-1-[(2R)-3,3,3-trifluoro-2-hydroxy-2-methylpropanoyl]piperidin-4-yl]pyridine-2-carboxamide] | 240 | 66 | 180
4 | C[C@@H]1CN(C(=O)[C@@](C)(O)C(F)(F)F)CC[C@@H]1N(C)C(=O)c1ccc(C#N)cc1 [Compound A44, 4-Cyano-N-methyl-N-[(3R,4S)-3-methyl-1-[(2R)-3,3,3-trifluoro-2-hydroxy-2-methylpropanoyl]piperidin-4-yl]benzamide] | 300 | 53 | 350
5 | C[C@@H]1CN(C(=O)[C@@](C)(O)C(F)(F)F)CC[C@@H]1N(C)C(=O)c1ccc(C(F)(F)F)cc1F [Compound A47, 2-Fluoro-N-methyl-N-[(3R,4S)-3-methyl-1-[(2R)-3,3,3-trifluoro-2-hydroxy-2-methylpropanoyl]piperidin-4-yl]-4-(trifluoromethyl)benzamide] | 230 | 35 | 190
6 | C[C@@H]1CN(C(=O)[C@@](C)(O)C(F)(F)F)CC[C@@H]1N(C)C(=O)c1ccc(F)cc1Cl [Compound A50, 2-Chloro-4-fluoro-N-methyl-N-[(3R,4S)-3-methyl-1-[(2R)-3,3,3-trifluoro-2-hydroxy-2-methylpropanoyl]piperidin-4-yl]benzamide] | 150 | 13 | 61
7 | C[C@@H]1CN(C(=O)[C@@](C)(O)C(F)(F)F)CC[C@@H]1N(C)C(=O)c1ccc(F)cn1 [Compound A53, 5-Fluoro-N-methyl-N-[(3R,4S)-3-methyl-1-[(2R)-3,3,3-trifluoro-2-hydroxy-2-methylpropanoyl]piperidin-4-yl]pyridine-2-carboxamide] | 410 | 51 | 340
8 | C[C@@H]1CN(C(=O)[C@@](C)(O)C(F)(F)F)CC[C@@H]1N(C)C(=O)c1cnn(C)c1 [Compound A56, N,1-Dimethyl-N-[(3R,4S)-3-methyl-1-[(2R)-3,3,3-trifluoro-2-hydroxy-2-methylpropanoyl]piperidin-4-yl]-1H-pyrazole-4-carboxamide] | 230 | 130 | 910
9 | C[C@@H]1CN(C(=O)[C@@](C)(O)C(F)(F)F)CC[C@@H]1N(C)C(=O)c1ccc(Cl)cc1F [Compound A59, 4-Chloro-2-fluoro-N-methyl-N-[(3R,4S)-3-methyl-1-[(2R)-3,3,3-trifluoro-2-hydroxy-2-methylpropanoyl]piperidin-4-yl]benzamide] | 98 | 20 | 53

The next lines start with results.

Row | IC50 (PDHK2) [nM] | Kd (human PDHK2 (12-407)) [nM] | Compound | IC50 [1] [nM]
10 | 290 | 44 | C[C@@H]1CN(C(=O)[C@@](C)(O)C(F)(F)F)CC[C@@H]1N(C)C(=O)c1ccc(C(F)(F)F)cc1 [Compound A62, N-Methyl-N-[(3R,4S)-3-methyl-1-[(2R)-3,3,3-trifluoro-2-hydroxy-2-methylpropanoyl]piperidin-4-yl]-4-(trifluoromethyl)benzamide] | 290
11 | 410 | 69 | CCN(C(=O)c1ccc(C)cc1F)C1CCN(C(=O)[C@@](C)(O)C(F)(F)F)CC1 [Compound A64, N-Ethyl-2-fluoro-4-methyl-N-[1-((R)-3,3,3-trifluoro-2-hydroxy-2-methyl-propionyl)-piperidin-4-yl]-benzamide] | 310
12 | 1300 | 140 | Cc1ccc(C(=O)N(C(C)C)C2CCN(C(=O)[C@@](C)(O)C(F)(F)F)CC2)c(F)c1 [Compound A65, 2-Fluoro-N-isopropyl-4-methyl-N-[1-((R)-3,3,3-trifluoro-2-hydroxy-2-methyl-propionyl)-piperidin-4-yl]-benzamide] | 590
13 | 2100 | 350 | CCN(C(=O)c1ccc(C#N)cc1)C1CCN(C(=O)[C@@](C)(O)C(F)(F)F)CC1 [Compound A66, 4-Cyano-N-ethyl-N-[1-((R)-3,3,3-trifluoro-2-hydroxy-2-methyl-propionyl)-piperidin-4-yl]-benzamide] | 2700
14 | 1600 | 470 | CC(C)N(C(=O)c1ccc(C#N)cc1)C1CCN(C(=O)[C@@](C)(O)C(F)(F)F)CC1 [Compound A67, 4-Cyano-N-isopropyl-N-[1-((R)-3,3,3-trifluoro-2-hydroxy-2-methyl-propionyl)-piperidin-4-yl]-benzamide] | 4100
